According to publication PMC5830761 (Royal Society Open Science, 2018):

Experiments:
human A1 receptors = biological target: T1, human A1 receptors (Homo sapiens, UniProt P30542); experiment: Radioligand binding to human A1 AR ([3H]CCPA), CHO cell membranes; conditions: mean ± SEM; for Ki: CHO cells expressing human A1AR, radioligand [3H]CCPA, read-out: Ki hA1AR
T1 sequence (P30542 1-326): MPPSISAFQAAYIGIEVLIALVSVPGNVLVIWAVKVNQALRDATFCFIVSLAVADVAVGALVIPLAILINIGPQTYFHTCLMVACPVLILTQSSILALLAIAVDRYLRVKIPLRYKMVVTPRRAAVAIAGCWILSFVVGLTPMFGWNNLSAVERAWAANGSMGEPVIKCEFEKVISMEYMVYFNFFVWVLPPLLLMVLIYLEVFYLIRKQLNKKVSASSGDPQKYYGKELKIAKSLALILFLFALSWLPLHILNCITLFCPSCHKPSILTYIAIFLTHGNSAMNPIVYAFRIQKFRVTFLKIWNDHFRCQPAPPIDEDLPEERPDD
Protocol: (§1) CHO (Chinese hamster ovary) cells expressing the recombinant human ARs^2 were cultured in DMEM supplemented with 10% fetal bovine serum, 100 units/mL penicillin, 100 µg/mL streptomycin, 2 µmol/mL glutamine, and 800 µg/mL geneticin. Cells were harvested by trypsinization. After homogenization and suspension, cells were centrifuged at 500 g for 10 min, and the pellet was resuspended in 50 mM Tris-HCl buffer (pH 8.0) containing 10 mM MgCl2, 1 mM EDTA, and 0.1 mg/mL CHAPS. The suspension was homogenized with an electric homogenizer for 10 s and was then recentrifuged at 20000 g for 20 min at 4 °C. […] The protein concentration was measured using the Bradford assay.^3
(§2) Human A1 and A2A receptors: For binding to human A1 receptors, [^3H]CCPA (1 nM) was incubated with membranes (40 µg/tube) from CHO cells stably expressing human A1 receptors at 25 °C for 60 min in 50 mM Tris-HCl buffer (pH 7.4; MgCl2, 10 mM) in a total assay volume of 200 µL. Nonspecific binding was determined using 10 µM of CPA. For human A2A receptor binding, membranes (20 µg/tube) from HEK-293 cells stably expressing human A2A receptors were incubated with 15 nM [^3H]CGS21680 at 25 °C for 60 min in 200 µL of 50 mM Tris-HCl, pH 7.4, containing 10 mM MgCl2. NECA (10 µM) was used to define nonspecific binding. Reaction was terminated by filtration with GF/B filters.

human A2A receptors = biological target: T2, human A2A receptors (Homo sapiens, UniProt P29274); experiment: Radioligand binding to human A2A AR ([3H]CGS21680); conditions: cells expressing human A2AAR; radioligand [3H]CGS21680; mean ± SEM; read-out: Ki hA2AAR
T2 construct: expressed in transfected cells
Protocol: as §1, §2

human A3 receptor = biological target: T3, human A3 receptor (Homo sapiens, UniProt P0DMS8); experiment: Competitive radioligand binding to human A3 AR ([125I]I-AB-MECA), CHO cell membranes; conditions: CHO cells expressing human A3AR; radioligand [125I]I-AB-MECA; mean ± SEM; read-out: Ki hA3AR
T3 construct: expressed in transfected cells; host or cells: CHO cells, membranes
T3 sequence (P0DMS8 1-318): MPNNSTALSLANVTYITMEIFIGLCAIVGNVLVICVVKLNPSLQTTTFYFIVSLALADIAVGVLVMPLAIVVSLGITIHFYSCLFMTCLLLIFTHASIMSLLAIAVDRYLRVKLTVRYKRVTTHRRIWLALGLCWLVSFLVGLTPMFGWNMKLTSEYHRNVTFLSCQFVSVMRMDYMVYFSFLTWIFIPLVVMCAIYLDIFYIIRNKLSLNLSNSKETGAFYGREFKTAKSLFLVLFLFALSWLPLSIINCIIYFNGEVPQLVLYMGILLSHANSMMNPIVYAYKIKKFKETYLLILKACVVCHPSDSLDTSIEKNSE
Protocol: as §1, with “CHAPS.” for “CHAPS. The suspension was homogenized with an electric homogenizer for 10 s and was then recentrifuged at 20000 g for 20 min at 4 °C.”
Human A3 receptor: For competitive binding assay, each tube contained 100 µL of membrane suspension (20 µg protein), 50 µL of [^125I]I-AB-MECA (0.5 nM), and 50 µL of increasing concentrations of the nucleoside derivative in Tris-HCl buffer (50 mM, pH 7.4) containing 10 mM MgCl2 and 1 mM EDTA. Nonspecific binding was determined using 10 µM of Cl-IB-MECA in the buffer. The mixtures were incubated at 25 °C for 60 min. Binding reactions were terminated by filtration through Whatman GF/B filters under reduced pressure using a MT-24 cell harvester (Brandell, Gaithersburgh, MD). Filters were washed three times with 9 mL of ice-cold buffer. Radioactivity was determined in a Beckman 5500B γ-counter.

T2 sequence (P29274 whole entry): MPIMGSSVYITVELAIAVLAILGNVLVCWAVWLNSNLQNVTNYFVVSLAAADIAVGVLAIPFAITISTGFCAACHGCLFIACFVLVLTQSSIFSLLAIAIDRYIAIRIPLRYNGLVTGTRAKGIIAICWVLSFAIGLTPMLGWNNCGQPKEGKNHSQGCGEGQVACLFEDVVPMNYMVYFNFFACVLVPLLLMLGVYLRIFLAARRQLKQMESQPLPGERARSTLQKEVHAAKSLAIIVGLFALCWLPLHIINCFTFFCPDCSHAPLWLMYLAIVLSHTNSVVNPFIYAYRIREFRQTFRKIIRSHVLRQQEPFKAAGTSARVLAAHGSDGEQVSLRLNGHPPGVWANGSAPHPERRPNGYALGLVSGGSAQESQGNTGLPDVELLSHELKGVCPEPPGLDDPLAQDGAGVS

| SMILES | inhibition at 10 µM (human A1 receptors; at 10 µM, weak binding, corresponding to IC50 ≥ 10 µM, [3H]CCPA, read-out: % inhibition at 10 µM hA1AR) [%] | Ki (human A2A receptors) [nM] | Ki (human A3 receptor) [nM] | Ki (human A1 receptors) [nM] |
| --- | --- | --- | --- | --- |
| Cn1cc(CCOc2nc(N)c3ncn([C@@H]4O[C@H](CO)[C@@H](O)[C@H]4O)c3n2)c2ccc(Br)cc21 [compound 9] | 47 | 2770 ± 500 | 679 ± 149 | – |
| Nc1nc(OCCc2cn(Cc3ccccc3)c3cc(Br)ccc23)nc2c1ncn2[C@@H]1O[C@H](CO)[C@@H](O)[C@H]1O [compound 10] | – | 380 ± 81 | 532 ± 144 | 217 ± 57 |
| Cn1cc(CCCOc2nc(N)c3ncn([C@@H]4O[C@H](CO)[C@@H](O)[C@H]4O)c3n2)c2ccc(Br)cc21 [compound 13, 2-(6"-Bromo-1"-Methyl-3"-indolylpropoxy)adenosine] | – | 262 ± 192 | 177 ± 43 | 230 ± 26 |
| Nc1nc(OCCCc2cn(Cc3ccccc3)c3cc(Br)ccc23)nc2c1ncn2[C@@H]1O[C@H](CO)[C@@H](O)[C@H]1O [compound 14, 2-(6"-Bromo-1"-Benzyl-3"-indolylpropoxy)adenosine] | – | 371 ± 79 | 491 ± 143 | 152 ± 49 |
